Assay results taken from patent US20250382305A1 (PTC THERAPEUTICS, INC., priority 2022, published 2025).

Tests used:
[1] = tested on: Total ATXN3 (tATXN3) protein; experiment: Endogenous Total ATXN3 (tATXN3) Protein Assay (MSD immunoassay of cell lysates); format: cell-based; conditions: average IC50, total ATXN3 protein in cell lysate after 48 h with compound (Table 1)
In short: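 Cells in DMEM/10% FBS were plated at 10,000 per well onto 7-point, 3.16-fold compound dilutions in duplicate for 48 h at 37° C, then lysed. Total ATXN3 in lysates was measured by MSD sandwich immunoassay: mouse anti-ATXN3 capture, rabbit anti-ATXN3 detection, SULFO-TAG anti-rabbit. Average IC50 was reported in star bins.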

[2] = tested on: ATXN3 pre-mRNA; experiment: RT-qPCR Assay to Quantify Exon 4 Skipping in ATXN3 pre-mRNA in Cells; format: cell-based; conditions: percent exon 4 skipping in ATXN3 pre-mRNA, RT-qPCR of cell lysates; average IC50
In short: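 Cells plated at 10,000/well onto a 7-point, 3.16-fold DMSO dilution series (duplicates), incubated 24 h at 37 °C, then lysed. Exon 4 skipping measured by one-step RT-qPCR (48 °C RT, 40 cycles); IC50 interpolated from dose-response fit of percent skipping.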

IC50 [1] [nM]	IC50 [2] [nM]	Compound
30 to 300	≤ 30	Cc1c([C@H]2OCCC[C@@H]2N)sc2c(NCc3ccco3)cc(Cl)nc12 [Compound 133, 2-((2S,3S)-3-aminotetrahydro-2H-pyran-2-yl)-5-chloro-N-(furan-2-ylmethyl)-3-methylthieno[3,2-b]pyridin-7-amine]
30 to 300	≤ 30	CN[C@H]1CCCC[C@@H]1c1sc2c(NCc3cccs3)cc(Cl)nc2c1C#CCCCO [Compound 264, 5-(5-chloro-2-((1S,2S)-2-(methylamino)cyclohexyl)-7-((thiophen-2-ylmethyl)amino)thieno[3,2-b]pyridin-3-yl)pent-4-yn-1-ol]
≤ 30	≤ 30	[2H]C1=C([2H])C([2H])([2H])[C@H](c2sc3c(NCc4cccs4)cc(Cl)nc3c2C)[C@@H](N)C1([2H])[2H] [Compound 205, 2-((1S,6S)-6-aminocyclohex-3-en-1-yl-2,2,3,4,5,5-d6)-5-chloro-3-methyl-N-(thiophen-2-ylmethyl)thieno[3,2-b]pyridin-7-amine]
> 1000	300 to 1000	Cc1c([C@@H]2CCCC[C@H]2N)sc2c(NCc3ccco3)cc(Cl)nc12 [Compound 401, 2-((1R,2R)-2-aminocyclohexyl)-5-chloro-N-(furan-2-ylmethyl)-3-methylthieno[3,2-b]pyridin-7-amine]
30 to 300	30 to 300	N[C@H]1CC=CC[C@@H]1c1sc2c(NCc3ccccc3F)cc(Cl)nc2c1Br [Compound 287, 2-((1S,6S)-6-aminocyclohex-3-en-1-yl)-3-bromo-5-chloro-N-(2-fluorobenzyl)thieno[3,2-b]pyridin-7-amine]
≤ 30	≤ 30	N[C@H]1CCCO[C@@H]1c1sc2c(NCc3cccs3)cc(Cl)nc2c1Cl [Compound 18, 2-[(2S,3S)-3-aminotetrahydropyran-2-yl]-3,5-dichloro-N-(2-thienylmethyl)thieno[3,2-b]pyridin-7-amine]
30 to 300	≤ 30	N[C@H]1CCCO[C@@H]1c1sc2c(NCc3ccccc3)cc(Cl)nc2c1Cl [Compound 110, 2-((2S,3S)-3-aminotetrahydro-2H-pyran-2-yl)-N-benzyl-3,5-dichlorothieno[3,2-b]pyridin-7-amine]
30 to 300	30 to 300	N[C@H]1COCC[C@@H]1c1sc2c(NCc3ccncc3)cc(Cl)nc2c1Br [Compound 364, 2-((3R,4S)-3-aminotetrahydro-2H-pyran-4-yl)-3-bromo-5-chloro-N-(pyridin-4-ylmethyl)thieno[3,2-b]pyridin-7-amine]
≤ 30	≤ 30	CC1=C(C)C[C@H](N)[C@@H](c2sc3c(NCc4ccco4)cc(Cl)nc3c2Cl)C1 [Compound 233, 2-((1S,6S)-6-amino-3,4-dimethylcyclohex-3-en-1-yl)-3,5-dichloro-N-(furan-2-ylmethyl)thieno[3,2-b]pyridin-7-amine]

More lines, now with the values behind:

Compound	IC50 [1] [nM]	IC50 [2] [nM]
N#Cc1cc(NCc2ccco2)c2sc([C@H]3CC=CC[C@@H]3N)c(Cl)c2n1 [Compound 242, 2-((1S,6S)-6-aminocyclohex-3-en-1-yl)-3-chloro-7-((furan-2-ylmethyl)amino)thieno[3,2-b]pyridine-5-carbonitrile]	≤ 30	≤ 30
6-((3R,4S)-3-aminotetrahydro-2H-pyran-4-yl)-7-bromo-2-chloro-N-(furan-2-ylmethyl)thieno[3,2-d]pyrimidin-4-amine and 6-((3S,4R)-3-aminotetrahydro-2H-pyran-4-yl)-7-bromo-2-chloro-N-(furan-2-ylmethyl)thieno[3,2-d]pyrimidin-4-amine [Compound 339]	30 to 300	30 to 300
N[C@@H]1CCCCC[C@H]1c1cc2nc(Cl)cc(NCc3cccs3)c2s1 [Compound 80, 2-((1R,2R)-2-aminocycloheptyl)-5-chloro-N-(thiophen-2-ylmethyl)thieno[3,2-b]pyridin-7-amine]	> 1000	> 1000
Cc1c([C@H]2CCCC[C@@H]2N)sc2c(NCc3cccs3)cc(Cl)nc12 [Compound 71, 2-((1S,2S)-2-aminocyclohexyl)-5-chloro-3-methyl-N-(thiophen-2-ylmethyl)thieno[3,2-b]pyridin-7-amine]	≤ 30	≤ 30
Cc1c([C@@H]2CC=CC[C@H]2N)sc2c(NCc3nccs3)nc(Cl)nc12 [Compound 441, 6-((1R,6R)-6-aminocyclohex-3-en-1-yl)-2-chloro-7-methyl-N-(thiazol-2-ylmethyl)thieno[3,2-d]pyrimidin-4-amine]	30 to 300	30 to 300
2-((1R,6R)-6-aminocyclohex-3-en-1-yl)-5-chloro-3-(propa-1,2-dien-1-yl)-N-(thiophen-2-ylmethyl)thieno[3,2-b]pyridin-7-amine and 2-((1S,6S)-6-aminocyclohex-3-en-1-yl)-5-chloro-3-(propa-1,2-dien-1-yl)-N-(thiophen-2-ylmethyl)thieno[3,2-b]pyridin-7-amine [Compound 324]	30 to 300	30 to 300
N[C@@H]1CCOC[C@H]1c1sc2c(NCc3ccco3)cc(Cl)nc2c1Cl [Compound 389, 2-((3S,4R)-4-aminotetrahydro-2H-pyran-3-yl)-3,5-dichloro-N-(furan-2-ylmethyl)thieno[3,2-b]pyridin-7-amine]	300 to 1000	300 to 1000
Cc1c([C@@H]2CCCCCC[C@H]2N)sc2c(NCc3cccs3)cc(Cl)nc12 [Compound 92, 2-((1R,2R)-2-aminocyclooctyl)-5-chloro-3-methyl-N-(thiophen-2-ylmethyl)thieno[3,2-b]pyridin-7-amine]	> 1000	> 1000
N[C@@H]1CCCN[C@H]1c1sc2c(NCc3cccs3)cc(Cl)nc2c1Br.N[C@H]1CCCN[C@@H]1c1sc2c(NCc3cccs3)cc(Cl)nc2c1Br (mixture of isomers) [Compound 47, 2-((2R,3R)-3-aminopiperidin-2-yl)-3-bromo-5-chloro-N-(thiophen-2-ylmethyl)thieno[3,2-b]pyridin-7-amine and 2-((2S,3S)-3-aminopiperidin-2-yl)-3-bromo-5-chloro-N-(thiophen-2-ylmethyl)thieno[3,2-b]pyridin-7-amine]	> 1000	300 to 1000
N#Cc1cc(NCc2ccco2)c2sc([C@@H]3CC=CC[C@H]3N)c(Cl)c2n1 [Compound 443, 2-((1R,6R)-6-aminocyclohex-3-en-1-yl)-3-chloro-7-((furan-2-ylmethyl)amino)thieno[3,2-b]pyridine-5-carbonitrile]	≤ 30	≤ 30
N[C@H]1CCCCC[C@@H]1c1sc2c(NCc3cccs3)cc(Cl)nc2c1-c1ccccc1 [Compound 141, 2-((1S,2S)-2-aminocycloheptyl)-5-chloro-3-phenyl-N-(thiophen-2-ylmethyl)thieno[3,2-b]pyridin-7-amine]	> 1000	> 1000
6-((1S,6S)-6-aminocyclohex-3-en-1-yl-2,2,3,4,5,5-d6)-7-bromo-2-chloro-N-(thiophen-2-ylmethyl)thieno[3,2-d]pyrimidin-4-amine [Compound 183]	≤ 30	≤ 30
CC#CCNc1cc(Cl)nc2c(C)c([C@H]3CC=CC[C@@H]3N)sc12 [Compound 306, 2-((1S,6S)-6-aminocyclohex-3-en-1-yl)-N-(but-2-yn-1-yl)-5-chloro-3-methylthieno[3,2-b]pyridin-7-amine]	30 to 300	30 to 300
